Laboratory results: patent publication US20210393742A1, “LONG-ACTING INTERLEUKIN-15 RECEPTOR AGONIST IN COMBINATION WITH ANOTHER PHARMACOLOGICALLY ACTIVE AGENT” (Nektar Therapeutics, priority 2018, published 2021)

What was measured:
[1] = tested on: Daudi B cell lymphoma; assay: Survival in Daudi B cell lymphoma xenograft model, combination with rituximab (Example 1); type: in vivo, mice; settings: after about 30 days; rituximab 40 mg/kg IP, days 14 and 17
Procedure: At day 0, SCID mice were intravenously injected with 1×10^7 Daudi cells. The mice were divided into four groups. On days 14 and 17 post-Daudi cell injection, the groups were treated by injection as follows: Group 1: isotype control antibody, Group 2: 40 mg/kg IP rituximab, Group 3: 0.3 mg/kg mono(methoxyPEG-N-butanamide)40 kD interleukin-15 (a long-acting IL-15 receptor agonist), Group 4: 40 mg/kg IP rituximab and 0.3 mg/kg SC mono(methoxyPEG-N-butanamide)40 kD interleukin-15 (combination).
The survival rate was determined by measuring the onset of hind limb paralysis as a surrogate parameter.

[2] = tested on: Daudi B cell lymphoma; assay: Daudi cell counts in bone marrow, low and high doses (Example 14); type: in vivo, mice; settings: day 24, single agent
Procedure: SCID mice (N=6/group) were intravenously inoculated with 10 million Daudi cells on Day 0 and treated with a single dose of a lower or higher dose of daratumumab (0.05 mg/kg or 5 mg/kg IP, 14 days following Daudi cell inoculation) and two doses of either lower or higher dose mono(methoxyPEG-N-butanamide)interleukin-15 (compound 1) (0.03 mg/kg or 0.6 mg/kg intravenously, one dose at each of 14 and 21 days after inoculation). Mice were also treated with the single agent therapies: daratumumab (0.05 mg/kg or 5 mg/kg IP, 14 days following Daudi cell inoculation) or two doses of mono(methoxyPEG-N-butanamide)40 kD interleukin-15 (compound 1) (0.03 mg/kg or 0.6 mg/kg intravenously, 14 and 21 days after inoculation). Daudi cell numbers in the bone marrow were assessed three days following the second dose of mono(methoxyPEG-N-butanamide)40 kD interleukin-15 (day 24) by flow cytometry as shown in FIGS. 17A and 17B.

[3] = tested on: NK cells; assay: Granzyme B expression per cell in bone marrow NK cells of Daudi lymphoma bearing mice (Example 11); type: in vivo; settings: bone marrow day 24; Conjugate 1 0.3 mg/kg; antibody 0.5 mg/kg
Procedure: (§1) Balb/c mice bearing Daudi B cell lymphoma tumors in the bone marrow (n=6/group) were intraperitoneally administered a single 0.5 mg/kg dose of the human CD38 protein targeting clinical antibody daratumumab (DARZALEX®), Janssen Biotech) or a nonspecific control antibody with a matching isotype on day 14 after Daudi cell intravenous inoculation. Additional groups were treated with (i) mono(mPEG-N-butanamide)40 kD interleukin-15 (Conjugate 1) administered subcutaneously at a dose of 0.3 mg/kg as a single agent on days 14 and 21 after Daudi cell inoculation, or (ii) a combination treatment of Conjugate 1 administered subcutaneously at doses of 0.03 mg/kg or 0.3 mg/kg on days 14 and 21 after Daudi cell inoculation and daratumumab administered intraperitoneally at a dose of 0.5 mg/kg on day 14 after Daudi cell inoculation.
(§2) Three days following the second Conjugate 1 administration (day 24 after Daudi inoculation), bone marrow was collected and the NK cell fraction was measured by flow cytometry in total bone marrow.

[4] = tested on: NK cells; assay: CD16 surface expression on bone marrow NK cells of Daudi lymphoma bearing mice (Example 10); type: in vivo; settings: bone marrow day 24
Procedure: as §1, with “(DARZALEX®,” for “(DARZALEX®),”
Three days following the second Conjugate 1 administration (day 24 after Daudi inoculation), bone marrow was collected and the NK cell fraction was measured by flow cytometry in total bone marrow. The fraction of NK cells expressing the cell surface CD16 receptor that is known to mediate antibody dependent cellular cytotoxicity mechanism in the presence of tumor targeting antibodies, and the change in CD16 expression per cell basis on NK cells are shown in FIGS. 13A and 13B, respectively.

[5] = tested on: Daudi B cell lymphoma; assay: Survival in Daudi B cell lymphoma xenograft model, combination with daratumumab (Example 3); type: in vivo, mice; settings: post tumor injection; daratumumab 0.5 mg/kg IP day 14; agonist 0.3 mg/kg SC days 14, 21, 28
Procedure: SCID mice (N=8/group) inoculated intravenously with 1×10^7 Daudi B cell lymphoma cells were treated with a single dose of daratumumab (0.5 mg/kg, IP, 14 days after inoculation) and a total of three doses of mono(methoxyPEG-N-butanamide)40 kD interleukin-15 (0.3 mg/kg, SC, administered 14, 21 and 28 days after tumor inoculation). Also evaluated were untreated mice as a control and mice treated with daratumumab as a single agent therapy. Survival of tumor-inoculated mice was measured by body condition scoring as endpoint marker. Results are provided graphically in FIG. 5.

[6] = tested on: NK cells; assay: NKG2A and NKG2D surface expression on bone marrow NK cells of Daudi lymphoma bearing mice (Example 4); type: in vivo; settings: bone marrow day 24; Conjugate 1 0.3 mg/kg SC days 14 and 21; antibody 0.5 mg/kg IP day 14
Procedure: as §1, with “(DARZALEX®,” for “(DARZALEX®),”, “administered mono(methoxyPEG-N-butanamide)40” for “treated with (i) mono(mPEG-N-butanamide)40”, “1)” for “1) administered”, “administered” for “(ii)”
as §2, with “marrow. Expression of the cell surface activating receptor NKG2D and the inhibitory checkpoint receptor NKG2A are shown in FIGS. 7A and 7B, respectively.” for “marrow.”

[7] = tested on: CD56+ human NK cells; assay: Dose response of human NK cell proliferation in CFSE labeled PBMCs (Example 8); type: cell-based; settings: 5 days
Procedure: Human peripheral blood mononuclear cell (PBMCs) labeled with a CFSE preparation were incubated for 5 days in vitro in the presence of increasing doses of rhIL-15 (dose range 1 ng/ml-100 ng/ml, 5 point, 3 fold dilutions) or a long-acting IL-15 receptor agonist (mono(mPEG-butanamide)IL-15) (dose range 10 ng/ml-1000 ng/ml, 5 point, 3 fold dilutions). After the incubation period, cell proliferation as indicated by the decrease of CFSE in the cells that had undergone cell doublings was measured with flow cytometry measuring CFSE levels in CD56+ human NK cells within the PBMCs preparation.

[8] = tested on: STAT5 phosphorylation in lymphocytes; assay: STAT5 phosphorylation in lymphocytes at time points after administration in mice, flow cytometry; type: in vivo
Description: Conventional approaches, such as those involving radiolabeling a compound, administering the compound in vivo, and determining its clearance, can be used to assess whether a compound proposed to be a long-acting, IL-15 receptor agonist is “long-acting” (i.e., has a clearance that is longer than that of IL-15 administered in the same in vivo system). For the purposes herein, the long-acting nature of a long-acting IL-15 receptor agonist may be, and is typically determined using flow cytometry to measure STAT5 phosphorylation in lymphocytes at various time points after administration of the agonist to be evaluated in mice. As a reference, the signal is lost by around 24 hours with IL-15, but is sustained for a period greater than that for a long-acting IL-15 agonist.

[9] = tested on: STAT5 phosphorylation in KHYG-1 cells; assay: Phosphorylation of STAT5 in KHYG-1 cells (Example 7); type: cell-based, human; settings: 10 minutes
Procedure: KHYG-1 cells were cultured in RPMI-1640 medium supplemented with 20% FBS, 2 mM L-glutamine, and 20 ng/mL IL-2 (Complete growth medium) in a humidified incubator at 37° C. and 5% CO2.
One day prior to treatment with test compounds, cells were seeded at a density of 500,000 viable cells/ml in Complete growth medium and incubated overnight under normal growth conditions. On the day of the assay, KHYG-1 cells were washed 3 times with DPBS, resuspended in assay medium (RPMI-1640 medium supplemented with 20% FBS, 2 mM L-glutamine), and incubated for 4-5 hours at 37° C., 5% CO2. Cells were adjusted to the appropriate density (8×10^5 cells/mL) in assay medium and 50,000 cells/well were aliquoted into wells of a 96-well plate (View-Plate 96, Perkin-Elmer).
KHYG-1 cells were stimulated with IL-15 or a long-acting IL-15 receptor agonist (mono(mPEG-butanamide)IL-15) followed by incubation at 37° C., 5% CO2 for 10 minutes. Treated cells were lysed on ice.
Detection of phospho-STAT5 protein levels in cell lysates was performed using the Phospho(Tyr694)/Total STAT5a,b Assay Whole Cell Lysate kit (MSD product #K15163D). Relative light unit (RLU) signal corresponding to phosphor-STAT5 was collected using a Sector® Imager 2400 plate reader (MSD) with the results provided in FIG. 10A.

[10] = Conjugate 1 0.3 mg/kg, antibody 0.5 mg/kg

Which survival [1] does the source give for “rituximab: anti-CD20 monoclonal antibody (Rituxan®, Genentech) [reference compound]” here?
The survival was 0%.

With “Daratumumab: anti-CD38 monoclonal antibody (DARZALEX®, Janssen Biotech) [reference compound]” as the substance, how does the “intra-bone marrow tumor cells depleted” value ([2]; high dose (daratumumab 5 mg/kg; compound 1 0.6 mg/kg)) read?
Its value is 58%.

And the “intra-bone marrow tumor cells depleted” value ([2]; low dose (daratumumab 0.05 mg/kg; compound 1 0.03 mg/kg))?
The value was 30%.

And the “Granzyme B mean fluorescence intensity (MFI mean value)” value [3]?
Its value is 272.

And the “Relative Granzyme B expression compared to untreated condition” value [3]?
Its value is “No increase (0.7x)”.

What about the “Fraction of NK cell expressing cell surface CD16 (mean value)” value ([4]; Conjugate 1 0.3 mg/kg SC days 14 and 21, antibody 0.5 mg/kg IP day 14) of the same substance?
Its value is 81%.

And the “CD16 mean fluorescence intensity (MFI mean value)” value [4, 10]?
Its value is 448.

What about the “Relative CD16 expression compared to untreated condition” value [4, 10] of the same substance?
Its value is “No increase (1x)”.

What about the median survival [5] of the same substance?
The median survival was 28.5 days.

And the “% NK cells expressing NKG2A (mean, n = 6)” value [6]?
Its value is 54.83%.

And the “% NK cells expressing NKG2D (mean, n = 6)” value [6]?
Its value is 10.22%.

How did the “EC50 (ng/ml)-% proliferation” value [7] turn out when “rhIL-15: recombinant human interleukin-15 (SEQ ID NO: 1), unconjugated comparator [reference compound]” was run?
Its value is 2.28 ng/mL.

What about the Emax-% proliferation [7] of the same substance?
The Emax-% proliferation was 69.6%.

And the “time by which the STAT5 phosphorylation signal is lost” value [8]?
Its value is “around 24 hours”.

And the “phosphorylation of STAT5” value [9]?
Its value is “dose-dependent phosphorylation of STAT5”.
